Data on two molecules can be found in patent US20210163929A1, “METHODS AND COMPOSITIONS FOR THE TREATMENT OF HEPATIC AND METABOLIC DISEASES” (The Regents of the University of California, priority 2018, published 2021).

Data set [1] deals with miR-22 in HCT116 cells. Put plainly: miR-22 induction in HCT116 cells treated with bile acids or HDAC inhibitors. It counts as cell-based, human. Particulars: CDCA 150 μM. How it is done: A time course study in which HCT116 cells were treated by 150 μM CDCA for indicated times. […] Data are presented as mean+/−S.D. * denotes p<0.05.
Data are shown as mean+/−S.D. * p<0.05; ** p<0.01; ***p<0.001.
OCA is a semi-synthetic bile acid, which as the structure of 6α-ethyl-chenodeoxycholic acid.

Data set [2] relates to FGF21 signaling and miR-22 in Huh7 cells. Description: mRNA and protein levels in Huh7 cells treated with OCA/INT-747, CDCA, butyrate or RA plus butyrate. It counts as cell-based, human. Particulars: CDCA 150 μM. How it is done:
(§1) Cell culture: Huh7 cells were obtained from Japanese Collection of Research Bioresources and maintained in DMEM with 10% FBS. Cells were treated with DMSO, OCA (5 or 20 μM; Apexbio Technology LLC, Houston, Tex., USA) in serum-free media for indicated time. Cells were plated (1×10^6 cells per 60-mm dish, 2×10^5 cells per 6-well plates, and 1×10^5 cells per 24-well plates) overnight prior to treatment or infection.
Gene expression quantification: Total RNA was extracted using TRIzol Reagent (Thermo Fisher Scientific, Waltham, Mass., USA), and cDNA was generated using High Capacity RNA-to-cDNA Kit (Applied Biosysterms, Carlsbad, Calif., USA). qRT-PCR was performed on ABI 7900HT Fast Real-time PCR system using Power SYBR® Green PCR Master Mix (Applied Biosysterms).
(§2) Western blot: Western blot was performed as described previously (26). Antibodies used were anti-FGFR1, FGF21, FASN, phosphor (P)-AMPK, total (T)-AMPK, phosphor (P)-ERK1/2, and total (T)-ERK1/2 (Cell Signaling Technology, Beverly, Mass., USA), β-ACTIN (MilliporeSigma), CD36 (Bioss Antibodies Inc., Woburn, Mass., USA), CYCLIN A2, PGC1α (Novus Biologicals, LLC, Littleton, Colo., USA), and PPARα (Santa Cruz Biotechnology, Santa Cruz, Calif., USA).

In data set [3] the test system is miR-22 in HCT116 cells. Put plainly: miR-22 induction in HCT116 cells treated with bile acids or HDAC inhibitors. It counts as cell-based, human. Particulars: 24 hours, CDCA 50, 100, 150 μM, OCA 25 and 50 μM.
In data set [4] the test system is miR-22. The conditions noted are these: published data; cited from earlier work.
In data set [5] the test system is FGF21 signaling in Huh7 cells. Put plainly: Huh7 cells infected/transfected with miR-22 or miR-22 inhibitors, mRNA and Western blot. It counts as cell-based, human.
Description: However, miR-22 was induced in the livers and adipose tissues of WD-fed mice (FIG. 15B). Similarly, using human liver biopsy specimens, miR-22 levels were positively associated with hepatic fat content and inversely correlated with the mRNA levels of PGC-1α, a key regulator of mitochondrial biogenesis (FIG. 15C). […] To study the downstream effects of miR-22, miR-22 mimics (ID: MIMAT0000077, […] (SEQ ID NO:2), Applied Biological Materials Inc.) were used to transfect human liver Huh7 cells.
as §1
(§3) Constructs and luciferase reporter assay: The 3′ untranslated region (3′-UTR) of the FGFR1 gene containing the putative binding site for miR-22 and the entire 3′-UTR of the FGF21 gene (105 bp) was cloned into the psiCHECK2 vector (Promega, Madison, Wis., USA) using NotI and XhoI. For cell infection, adenovirus (negative control), adenoviral-delivered miR-22 (miR-22), or adenoviral-miR-22 inhibitors (SEQ ID NO:1; Applied Biological Materials Inc., Richmond, BC) were used. Forty-eight h post infection, cells were transfected with psiCHECK2-FGR1-3′UTR or psiCHECK2-FGF21 3′UTR using Lipofectamine 2000 (Thermo Fisher Scientific). Twenty-four h later, cells were harvested for firefly and Renilla luciferase assay using the Dual-luciferase Reporter system (Promega). Renilla luciferase activity was standardized to firefly luciferase activity.
as §2
On the technique in general: Immunoblotting shows a protein as a band on a membrane.

The test system of data set [6] is 3′UTR of FGFR1. Put plainly: Luciferase reporter assay, psiCHECK2-FGFR1 3′UTR in Huh7 cells. It counts as cell-based, human. The conditions noted are these: 48 h infection then reporter transfection.
Description: as §3

Data set [7] relates to 3′UTR of FGF21. Put plainly: Luciferase reporter assay, psiCHECK2-FGF21 3′UTR in Huh7 cells. It counts as cell-based, human. The conditions noted are these: 48 h infection then reporter transfection.
Description: as §3
(Reporter assays use an easily measured gene product as a stand-in for the process of interest.)

Data set [8] concerns PPREs in the regulatory region of FGF21. Description: ChIP-qPCR of PPARα and PGC1α occupancy in Huh7 cells. It counts as cell-based, human. Particulars: miR-22 overexpression. Here is the method:
Chromatin immunoprecipitation (ChIP)-qPCR: ChIP-qPCR was performed based on a previous publication (27). Briefly, chromatin lysate was precleared before incubation with anti-PGC1α (Novus Biologicals) and anti-PPARα (Santa Cruz Biotechnology). IgG (Santa Cruz Biotechnology) and RNA Polymerase II antibody (MilliporeSigma) was used as negative and positive control, respectively. Samples were incubated with Dynase beads at 4° C. overnight followed by de-crosslinking and purification. DNA fragments generated served as templates for qPCR using Power SYBR Green PCR Master Mix.
For orientation: Real-time PCR tracks product formation cycle by cycle.

Data set [9] relates to HDAC1, HDAC4 and CYCLIN A2 in Huh7 and HCT116 cells. Description: Deacetylase protein levels after miR-22 in Huh7 and HCT116 cells. It counts as cell-based, human.
Data set [10] deals with Western diet-induced steatosis in C57BL/6 mice. Put plainly: Pilot study in Western diet-fed mice, tail vein adenoviral miR-22 mimics or inhibitors. It counts as in vivo, mouse. Here is the method: Wild type C57BL/6 mice were fed with a high fat and high sucrose (21.2% fat, 34% sucrose, and 0.2% cholesterol) Western diet (WD) since weaning (3 weeks). When mice were 2.5 months old, they received adenoviral-delivery of miR-22 mimics or miR-22 inhibitors (i.e., SEQ ID NO:1) via tail vein injection (1×10^9 PFU/100 μl saline, 3 doses in 10 days). […] In addition, hepatic Pgc1α mRNA level was reduced by miR-22 mimics, but increased by miR-22 inhibitors (FIG. 10).
To further analyze the role miR-22 in regulating hepatic metabolism, we have done pilot studies to test the effect of miR-22 in non-alcoholic and alcoholic steatohepatitis. Steatosis was induced by feeding mice with a WD that has high fat and high sucrose content since weaning (3-weeks old). After 2 months of differential diet feeding, mild steatosis was found in WD-fed mice. Then, those WD-fed mice received adenoviral-control, adenoviral-delivered miR-22 mimics, or miR-22 inhibitors (i.e., SEQ ID NO:1) via tail vein injection (1×10^9 pfu/200 μl, 3 doses, weekly) while continuing a WD. […] These exciting findings indicate that forced miR-22 expression in WD-fed mice potentially can be a novel NASH model.

Data set [11] concerns alcohol-induced steatosis in C57BL/6 mice. Put plainly: Alcohol-induced steatosis in mice treated with adenoviral miR-22 inhibitors. It is filed as in vivo, mouse. The conditions noted are these: FIG. 29E.
Description: We performed another pilot experiment to test the effect of miR-22 inhibitors in reducing alcohol-induced steatosis. The same method described above for FIG. 2C was used to induce steatosis followed by miR-22 inhibitor treatment through tail vein injection.
Additionally, alcohol was used to induce fatty liver. Mice were on Liber DeCarli liquid diet supplemented with 5% alcohol for 3 weeks followed by delivery of adenoviral-control and adenoviral-miR-22 inhibitors using the same methods described above. During the interventions, mice continued having alcohol-supplemented liquid diet.
3-month old WT male mice were fed with Liber DeCarli diet with 5% alcohol supplementation for 3 weeks followed by adenovirus delivery of miR-22 inhibitor (1×10^9PFU) through tail vein injection (3 times in 10 days). The empty adenovirus was used as a negative control. The mice were killed 1 day after the last injection. Steatosis scored was graded on a scale of a scale of 0 (<5%), 1 (5-33%), 2 (34-66%), and 3 (>66%). […]
Biochemical analysis: Hepatic triglyceride and cholesterol (BioAssay Systems, Hayward, Calif., USA) levels and serum lipopolysaccharide (LPS) (Thermo Fisher Scientific), alanine transaminase (ALT) (Pointe Scientific), and alkaline phosphatase (ALP) (Pointe Scientific) levels were quantified according to the manufacturer's instructions.
The test system of data set [12] is mice after 2/3 liver resection. Put plainly: 2/3 liver resection in mice given miR-22 inhibitors or mimics. It counts as in vivo, mouse. Particulars: compared to other groups. How it is done:
The data presented in FIGS. 38 and 39 further support the usefulness of miR-22 inhibition. For the experiments used to generate the data in FIG. 38, mice received miR-22 inhibitors or miR-22 mimics via tail vein injection 3 days prior to 2/3 liver resection (1×10^9 pfu in 100 μL saline, one injection per day). Mice were killed on day 0 (immediately after liver resection) or 2 days later.

The mark [13] stands for this setting: WD-fed C57BL/6 mice 2.5 months old, tail vein 1×10^9 PFU/100 μl, 3 doses in 10 days.

Entries after “also recorded” stand apart in the source; their conditions may differ.

Take `C[C@H](CCC(=O)O)[C@H]1CC[C@H]2[C@@H]3[C@H](O)C[C@@H]4C[C@H](O)CC[C@]4(C)[C@H]3CC[C@]12C` [CDCA, chenodeoxycholic acid]: the “FGF21 and miR-22 levels” value in [1] was “induced FGF21 and miR-22 levels”; in data set [2], “induced FGF21 and miR-22 levels”. The miR-22 level result in data set [3] is recorded as “induced miR-22”. The miR-22 induction result in data set [4] is on record as “induced”.

As for “miR-22 mimics: miR-22 mimics (ID: MIMAT0000077, AAGCUGCCAGUUGAAGAACUGU, SEQ ID NO:2), transfected or adenoviral-delivered (chemistry not given here; listed as Homo sapiens)”, in [5], the “expression of βKlotho” value is listed as “did not affect the expression of βKlotho” and the “total AMPK” value was “had no effect on total AMPK”. Also, the “PPARα and PGC1α protein levels” value in data set [5] (48 h post infection) is “reduced PPARα and PGC1α”. Also, in [5] (miR-22 overexpression), the “AMPK and ERK1/2 activation (P-AMPK, P-ERK1/2)” value was “AMPK and ERK1/2 deactivation”; the “FGF21 and FGFR1 (SIRT1, p-AMPK) levels” value is “reduced the protein level of FGF21, FGFR1 and p-AMPK; also recorded: reduced the protein level of FGF21, FGFR1, and SIRT1”. The “FGF21 and FGFR1 (SIRT1, p-AMPK) levels” value in [5] (miR-22 overexpression, listed as miR-22) is “reduced FGF21 and FGFR1 at both mRNA and protein levels”. For the same molecule, in data set [6], the “luciferase activity driven by FGFR1 3′UTR” value is listed as “decreased the luciferase activity”. Further, the “luciferase activity driven by FGF21 3′UTR” value in [7] was “neither miR-22 nor miR-22 inhibitors changed the luciferase activity”. In addition, in data set [8], the “occupancy of PPARα and PGC1α in the two PPREs of FGF21” value is given as “substantially reduced”. Also, the “protein level of HDAC1, HDAC4 and CYCLIN A2” value in data set [9] was “reduced the protein level of HDAC1 and HDAC4 as well as CYCLIN A2”. Also, in data set [10] (setting [13]), the “hepatic Pgc1α mRNA level” value is “reduced”, the hepatic lymphocyte infiltration entry is listed as “induced hepatic lymphocyte infiltration” and the “severity of steatosis / hepatic fat content” value was “increased the severity of steatosis”. Also, the “liver histology (hepatic fat content, lymphocyte infiltration)” value in data set [10] (WD-fed mice after 2 months of diet, tail vein 1×10^9 pfu/200 μl, 3 doses, weekly) is “increased hepatic fat content and lymphocyte infiltration”. Besides, the “hepatic gene expression (PGC1α, CPT1, SREBP-1c, FASN, TNFα)” value in data set [11] is “reduced PGC1α and CPT1, but increased SREBP-1c, FASN, and TNFα”. For the same molecule, the “liver-to-body weight ratio and fat-to-body weight ratio” value in data set [12] is “substantially higher”.
